One experiment has as its target hQC (Homo sapiens, UniProt Q16769). Put plainly: Fluorometric assay of glutaminyl cyclase (QC) inhibition, H-Gln-βNA or H-Gln-AMC substrate. The experiment is classed as biochemical. The conditions noted are these: compound from preparative synthesis, purified by chromatography; fluorescent assay; read-out: IC50 hQC. An outline of the steps: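 Fluorometric coupled assays at 30° C in Tris/HCl pH 8.0 with EDTA and pyroglutamyl aminopeptidase used either 0.2 mM H-Gln-βNA (320/410 nm) or H-Gln-AMC (380/460 nm), started by QC. Screening used 4 mM inhibitor at substrate 1 KM. Ki came from fitting progress curves to competitive inhibition.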
Chain of hQC (Q16769 29-361): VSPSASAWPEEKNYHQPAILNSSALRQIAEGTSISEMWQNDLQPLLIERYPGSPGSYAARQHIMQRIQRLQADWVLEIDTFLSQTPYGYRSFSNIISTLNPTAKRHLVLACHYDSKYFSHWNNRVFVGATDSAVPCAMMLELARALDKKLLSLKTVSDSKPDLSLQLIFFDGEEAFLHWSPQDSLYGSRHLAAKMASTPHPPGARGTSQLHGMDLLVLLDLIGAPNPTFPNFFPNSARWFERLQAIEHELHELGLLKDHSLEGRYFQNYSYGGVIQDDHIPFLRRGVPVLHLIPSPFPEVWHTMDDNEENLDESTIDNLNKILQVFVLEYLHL
As to `O=C1N/C(=N/Cc2ccccc2)C(c2ccc(Cl)cc2)N1c1ccc2[nH]cnc2c1` (stereo not drawn) [Compound 162, 1-(1H-Benzoimidazol-5-yl)-4-benzylimino-5-(4-chloro-phenyl)-imidazolidin-2-one], the IC50 turned out to be 19.5 nM. The same measure, in the same setting: the same measure for `O=C1CCCN1CCC/N=C1/NC(=O)N(c2ccc3[nH]cnc3c2)C1c1ccc2c(c1)OCO2` (stereo not drawn) [Compound 168, 5-Benzo[1,3]dioxol-5-yl-1-(1H-benzoimidazol-5-yl)-4-(3-(2-oxo-pyrrolidin-1-yl)-propylimino)-imidazolidin-2-one]: 27.4 nM.

The experiment is the same for the next values; noted with them: read-out: IC50.
Consider `O=C(C/N=C1\C(c2cccc(Br)c2)NC(=S)N1c1ccc2[nH]cnc2c1)N1CCSCC1` (stereo not drawn) [Compound 152, 2-(3-(1H-benzo[d]imidazol-5-yl)-5-(3-bromophenyl)-2-thioxoimidazolidin-4-ylideneamino)-1-thiomorpholinoetha-none], for which the IC50 came to 2200 nM.

Turning to `O=C1NC(c2cc(F)cc(F)c2)/C(=N\CC(O)c2ccccc2)N1c1ccc2[nH]cnc2c1` (stereo not drawn) [Compound 153, 1-(1H-Benzoimidazol-5-yl)-5-(3,5-difluoro-phenyl)-4-2-hydroxy-2-phenyl-ethylimino-imidazolidin-2-one], the IC50 worked out at 400 nM. As to `O=C(C/N=C1\NC(=O)N(c2ccc3[nH]cnc3c2)C1c1c(F)ccc(Cl)c1F)N1CCCC(O)C1` (stereo not drawn) [Compound 154, 1-(1H-Benzoimidazol-5-yl)-5-(3-chloro-2,6-difluoro-phenyl)-4-2-(3-hydroxy-piperidin-1-yl)-2-oxo-ethylimino-imidazolidin-2-one], the IC50 amounted to 400 nM.

As to `O=C1CCCN1CCC/N=C1/NC(=O)N(c2ccc3[nH]cnc3c2)C1c1ccc2nsnc2c1` (stereo not drawn) [Compound 155, 1-(1H-Benzoimidazol-5-yl)-5-benzo[c][1,2,5]thiadiazol-5-yl-4-3-(2-oxo-pyrrolidin-1-yl)-propylimino-imidazolidin-2-one], the IC50 is 4 nM. Still for that read-out and setting: with `Cc1ccc(C2/C(=N/C(C)C)NC(=O)N2c2ccc3[nH]cnc3c2)c(C)c1` (stereo not drawn) [Compound 156, 1-(1H-Benzoimidazol-5-yl)-5-(2,4-dimethyl-phenyl)-4-isopropylimino-imidazolidin-2-one] the figure was 400 nM; with `CN(C)CCCN=C1NC(=O)N(c2ccc3[nH]cnc3c2)C1c1ccc2ccccc2c1` (stereo not drawn) [Compound 157, 1-(1H-Benzoimidazol-5-yl)-4-3-dimethylamino-propylimino-5-naphthalen-2-yl-imidazolidin-2-one], 5800 nM.

With `O=C1N/C(=N\C2CC2)C(c2ccccc2C(F)(F)F)N1c1ccc2[nH]cnc2c1` (stereo not drawn) [Compound 158, 1-(1H-Benzoimidazol-5-yl)-4-cyclopropylimino-5-(2-trifluoromethyl-phenyl)-imidazolidin-2-one], the IC50 came out at 4900 nM. On the same count and under the same terms, with `C/N=C1/NC(=O)N(c2ccc3[nH]cnc3c2)C1c1ccc2ccccc2c1` (stereo not drawn) [Compound 159, 1-(1H-Benzoimidazol-5-yl)-4-methylimino-5-naphthalen-2-yl-imidazolidin-2-one] the figure was 4 nM; with `CCc1ccccc1C1/C(=N/C2CCCc3ccccc32)NC(=O)N1c1ccc2[nH]cnc2c1` (stereo not drawn) [Compound 160, 1-(1H-Benzoimidazol-5-yl)-5-(2-ethyl-phenyl)-4-1,2,3,4-tetrahydro-naphthalen-1-ylimino-imidazolidin-2-one], 2200 nM; with `S=C1N/C(=N\C2CCCc3ccccc32)C(c2cccc(Br)c2)N1c1ccc2[nH]cnc2c1` (stereo not drawn) [Compound 161, 1-(1H-Benzoimidazol-5-yl)-5-(3-bromo-phenyl)-4-1,2,3,4-tetrahydro-naphthalen-1-ylimino-imidazolidine-2-thione], 5800 nM. Turning to `O=C1N/C(=N/Cc2ccccc2)C(c2ccc(Cl)cc2)N1c1ccc2[nH]cnc2c1` (stereo not drawn) [Compound 162, 1-(1H-Benzoimidazol-5-yl)-4-benzylimino-5-(4-chloro-phenyl)-imidazolidin-2-one], the IC50 came out at 4 nM.

Take `O=C1N/C(=N/CCCN2CCOCC2)C(c2ccc3[nH]ccc3c2)N1c1ccc2[nH]cnc2c1` (stereo not drawn) [Compound 163, 1-(1H-Benzoimidazol-5-yl)-5-(1H-indol-5-yl)-4-3-morpholin-4-yl-propylimino-imidazolidin-2-one]: the IC50 was 4 nM. Same read-out and setting: the same measure for `S=C1N/C(=N\C(Cc2ccccc2)c2ccccc2)C(c2cccc(Br)c2)N1c1ccc2[nH]cnc2c1` (stereo not drawn) [Compound 164, 1-(1H-Benzoimidazol-5-yl)-5-(3-bromo-phenyl)-4-1,2-diphenyl-ethylimino-imidazolidine-2-thione]: 9400 nM. On to `CC1=CC(C)C(C2/C(=N/C(C)C(C)(C)C)NC(=S)N2c2ccc3nc[nH]c3c2)CC1` (stereo not drawn) [Compound 165, 1-(3H-Benzoimidazol-5-yl)-5-(2,4-dimethyl-cyclohex-3-enyl)-4-1,2,2-trimethyl-propylimino-imidazolidine-2-thione], for which the IC50 was determined as 7600 nM. For `O=C1CCCN1CCC/N=C1/NC(=O)N(c2ccc3[nH]cnc3c2)C1c1cc2ccccc2s1` (stereo not drawn) [Compound 166, 5-Benzobthiophen-2-yl-1-(1H-benzoimidazol-5-yl)-4-3-(2-oxo-pyrrolidin-1-yl)-propylimino-imidazolidin-2-one], the IC50 was determined as 400 nM. Consider `C/N=C1/NC(=O)N(c2ccc3[nH]cnc3c2)C1c1ccc(C)cc1` (stereo not drawn) [Compound 167, 1-(1H-Benzoimidazol-5-yl)-4-methylimino-5-p-tolyl-imidazolidin-2-one], for which the IC50 was 400 nM. Same read-out and setting: the same measure for `O=C1CCCN1CCC/N=C1/NC(=O)N(c2ccc3[nH]cnc3c2)C1c1ccc2c(c1)OCO2` (stereo not drawn) [Compound 168, 5-Benzo[1,3]dioxol-5-yl-1-(1H-benzoimidazol-5-yl)-4-(3-(2-oxo-pyrrolidin-1-yl)-propylimino)-imidazolidin-2-one]: 4 nM.

Turning to `O=C1N/C(=N\C(Cc2ccccc2)c2ccccc2)C(C2=CCCCC2)N1c1ccc2[nH]cnc2c1` (stereo not drawn) [Compound 169, 1-(1H-Benzoimidazol-5-yl)-5-cyclohex-1-enyl-4-1,2-diphenyl-ethylimino-imidazolidin-2-one], the IC50 is 3100 nM. As to `Cc1ccc(C2/C(=N\Cc3ccc4[nH]ccc4c3)NC(=O)N2c2ccc3[nH]cnc3c2)cc1` (stereo not drawn) [Compound 170, 1-(1H-Benzoimidazol-5-yl)-4-1H-indol-5-ylmethylimino-5-p-tolyl-imidazolidin-2-one], the IC50 was 4 nM. In the case of `O=C1N/C(=N\C2CCCC2)C(c2ccc3ccccc3c2)N1c1ccc2[nH]cnc2c1` (stereo not drawn) [Compound 171, 1-(1H-Benzoimidazol-5-yl)-4-cyclopentylimino-5-naphthalen-2-yl-imidazolidin-2-one], the IC50 was determined as 4 nM. Consider `O=C1N/C(=N/CCCc2ccccc2)C(c2cc3ccccc3s2)N1c1ccc2[nH]cnc2c1` (stereo not drawn) [Compound 172, 5-Benzobthiophen-2-yl-1-(1H-Benzoimidazol-5-yl)-4-3-phenyl-propylimino-imidazolidin-2-one], for which the IC50 amounted to 1300 nM. In the case of `O=C1N/C(=N/Cn2nnc3ccccc32)C(c2ccc3[nH]ccc3c2)N1c1ccc2[nH]cnc2c1` (stereo not drawn) [Compound 173, 1-(1H-Benzoimidazol-5-yl)-4-benzotriazol-1-ylmethylimino-5-(1H-indol-5-yl)-imidazolidin-2-one], the IC50 was found to be 4 nM.

As for `CC(C)/N=C1\NC(=O)N(c2ccc3[nH]cnc3c2)C1c1cccc(C#N)c1` (stereo not drawn) [Compound 174, 3-{3-(1H-Benzoimidazol-5-yl)-5-isopropylimino-2-oxo-imidazolidin-4-yl}-benzonitrile], the IC50 is 400 nM. Still for that read-out and setting: the same measure for `O=C1CCCN1CC/N=C1\NC(=S)N(c2ccc3[nH]cnc3c2)C1c1cccc(Br)c1` (stereo not drawn) [Compound 175, 1-(2-(1-(1H-benzo[d]imidazol-5-yl)-5-(3-bromophenyl)-2-thioxoimidazolidin-4-ylideneamino)ethyl)pyrrolidin-2-one]: 4900 nM; for `S=C1N/C(=N/Cn2nnc3ccccc32)C(c2ccc3c(c2)OCO3)N1c1ccc2[nH]cnc2c1` (stereo not drawn) [Compound 176, 5-Benzo1,3dioxol-5-yl-1-(1H-benzoimidazol-5-yl)-4-benzotriazol-1-ylmethylimino-imidazolidine-2-thione]: 1300 nM.

The record behind these values is patent US20080221086A1, “Novel Inhibitors of Glutaminyl Cyclase” (PROBIODRUG AG, priority 2006, published 2008).
